Data taken from PubChem BioAssay (NCI).
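Growth conditions: 96-well plates. Treatment: test compound, 48 hours, 5 concentrations. Analysis: linear interpolation between bracketing concentrations; unreached endpoints set to highest concentration. TGI denotes the concentration required for complete inhibition of growth.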

Assays:
Experiment in all cases: inhibition of tumour cell growth, NCI panel, 48 h
A549 NSCLC = test system: A549 NSCLC
RPMI-8226 leukemia = test system: RPMI-8226 leukemia
COLO 205 colon = test system: COLO 205 colon
SN12C renal = test system: SN12C renal
UO-31 renal = test system: UO-31 renal
M14 melanoma = test system: M14 melanoma
HCT-15 colon = test system: HCT-15 colon
NCI-H460 lung = test system: NCI-H460 lung
HCC-2998 colon = test system: HCC-2998 colon
SW-620 colon = test system: SW-620 colon
NCI-H23 lung = test system: NCI-H23 lung
OVCAR-4 ovarian = test system: OVCAR-4 ovarian
MDA-MB-435 = test system: MDA-MB-435
SF-539 CNS = test system: SF-539 CNS
RXF 393 renal = test system: RXF 393 renal
HL-60(TB) leukemia = test system: HL-60(TB) leukemia
UACC-257 melanoma = test system: UACC-257 melanoma
SK-OV-3 ovarian = test system: SK-OV-3 ovarian
DU-145 prostate = test system: DU-145 prostate
UACC-62 melanoma = test system: UACC-62 melanoma
SK-MEL-5 melanoma = test system: SK-MEL-5 melanoma
SK-MEL-28 melanoma = test system: SK-MEL-28 melanoma
U251 CNS = test system: U251 CNS
MDA-MB-231 breast = test system: MDA-MB-231 breast
CCRF-CEM leukemia = test system: CCRF-CEM leukemia
LOX IMVI melanoma = test system: LOX IMVI melanoma
HOP-92 NSCLC = test system: HOP-92 NSCLC
786-0 renal = test system: 786-0 renal
ACHN renal = test system: ACHN renal
HS 578T breast = test system: HS 578T breast
NCI-H226 lung = test system: NCI-H226 lung
KM12 colon = test system: KM12 colon
BT-549 breast = test system: BT-549 breast
EKVX NSCLC = test system: EKVX NSCLC
SR leukemia = test system: SR leukemia
HCT-116 colon = test system: HCT-116 colon
SK-MEL-2 melanoma = test system: SK-MEL-2 melanoma
SNB-19 CNS = test system: SNB-19 CNS
IGROV1 ovarian = test system: IGROV1 ovarian
OVCAR-3 ovarian = test system: OVCAR-3 ovarian
MDA-N = test system: MDA-N
NCI/ADR-RES ovarian = test system: NCI/ADR-RES ovarian
TK-10 renal = test system: TK-10 renal
HOP-62 NSCLC = test system: HOP-62 NSCLC
OVCAR-5 ovarian = test system: OVCAR-5 ovarian
MOLT-4 leukemia = test system: MOLT-4 leukemia
K-562 leukemia = test system: K-562 leukemia
HT29 colon = test system: HT29 colon
SF-268 CNS = test system: SF-268 CNS
A498 renal = test system: A498 renal
MCF7 breast = test system: MCF7 breast
T-47D breast = test system: T-47D breast
MALME-3M melanoma = test system: MALME-3M melanoma
PC-3 prostate = test system: PC-3 prostate
M19-MEL melanoma = test system: M19-MEL melanoma
SNB-78 CNS = test system: SNB-78 CNS
LXFL 529 NSCLC = test system: LXFL 529 NSCLC
KM20L2 colon = test system: KM20L2 colon
NCI-H522 lung = test system: NCI-H522 lung
SNB-75 CNS = test system: SNB-75 CNS
SF-295 CNS = test system: SF-295 CNS

Measured: TGI

Clc1ccc(/C=C/c2nc(-c3ccc(Cl)cc3)cn3c2nc2ccccc23)cc1
not listed: M19-MEL melanoma | SNB-78 CNS | LXFL 529 NSCLC | KM20L2 colon | NCI-H522 lung | SNB-75 CNS | SF-295 CNS
> 100 µM: all other assays above

COc1ccc2c(c1)CC[C@@H]1C2CC[C@]2(C)C(=O)N(CCN3CCCCC3)C(=O)CC12 (stereo partly drawn)
99.2 µM: RXF 393 renal
41.7 µM: UACC-62 melanoma
48.9 µM: M14 melanoma
63.4 µM: UACC-257 melanoma
61.1 µM: HL-60(TB) leukemia
not listed: A549 NSCLC | SN12C renal | HCT-15 colon | HCC-2998 colon | SW-620 colon | MDA-MB-435 | DU-145 prostate | SK-MEL-5 melanoma | MDA-MB-231 breast | LOX IMVI melanoma | HS 578T breast | NCI-H226 lung | BT-549 breast | EKVX NSCLC | OVCAR-3 ovarian | MDA-N | NCI/ADR-RES ovarian | TK-10 renal | MOLT-4 leukemia | MCF7 breast | T-47D breast | PC-3 prostate
> 100 µM: all other assays above
